Reference: article PMC7188855, “Nucleic acid recognition and antiviral activity of 1,4-substituted terphenyl compounds mimicking all faces of the HIV-1 Rev protein positively-charged α-helix” (Scientific Reports, 2020)
Where two headings read alike, the source gives them in different places.

How the values were obtained:
[1] = target: RRE subdomain IIB-Rev34–50; experiment: Fluorescence anisotropy displacement of the IIBh-Rev34–50 interaction; conditions: read-out: IC50, RRE subdomain IIB-Rev34–50, 60 nM IIBh, 10 nM frevp, 100 mM KCl, 20 mM NaCl, 2 mM MgCl2
Description: These experiments were conducted in a Victor X5 (PerkinElmer) plate reader as described before[7],[21], using 10 nM frevp and 60 nM IIBh. […] Each fluorescence anisotropy experiment was repeated at least two times.

high-order RRE-Rev = experiment: EMSA of full-length RRE-Rev ribonucleoprotein formation; assay type: binding, HIV-1; conditions: 78 nM RRE, 1.32 μM Rev, 300 mM KCl, 1 mM MgCl2, band of high-order complexes
Source text: After the high-affinity interaction between RRE subdomain IIB and the Rev34–50 helix of the first Rev monomer is established, the RRE-Rev ribonucleoprotein is formed by the incorporation of additional Rev units binding to further sites in the RRE (Fig. 3B, right)[9],[10],[13]. Using an electrophoretic mobility shift assay (EMSA) involving full-length RRE and Rev, we also evaluated whether 1,4-terphenyl compounds were capable of interfering with the formation of the ribonucleoprotein. […] The effect was particularly prominent for high-order complexes (containing a greater number of Rev monomers), but the inhibition of low-order complexes by 1d was also detected at concentrations consistent with the IC50 value measured in the IIB-Rev34–50 displacement experiment. Compounds 1b and 3c exerted a weaker effect on the RRE-Rev complex, in agreement with the results obtained in the displacement experiments monitored by fluorescence anisotropy (Fig. 3B and Table 1).
(§1) The experiments monitoring RRE-Rev inhibition utilized 78 nM full-length RRE and 1.32 μM full-length Rev dissolved in 10 mM HEPES pH 7.5, 300 mM KCl, 1 mM MgCl2 and 0.5 mM EDTA binding buffer, and increasing concentrations of each compound up to 50 μM[21],[39]. The reactions were incubated at room temperature for 20 minutes and loaded onto 8% polyacrylamide gels with TB running buffer. Gels were run at 4 °C for 1–4 hours at 150 V, and the bands were stained with SYBR gold and quantified with Quantity One 4.1 analysis software. Experiments monitoring binding to the 58-base pair HIV-1 LTRc core segment utilized 20 nM LTRc duplex dissolved in the same binding buffer, and increasing concentrations of each compound. The reactions were similarly incubated and loaded onto 20% polyacrylamide gels with TB running buffer. The gels were run at 4 °C for 3.5 hours at 150 V, and the bands were stained and quantified as described above. The specificity of LTRc association was evaluated by duplicating the experiments in the presence of a 100-fold molar excess of DNAd duplex (28-fold base-pair molar excess). In all cases, we monitored the disappearance of the band corresponding to high-order RRE-Rev complexes or free LTRc, and 50% response RC50 values were determined with Prism by fitting the data to a sigmoidal inhibitory model: I−Imin=ImaxC/1+C/RC50 where I is the intensity of the band corresponding to LTRc or high-order RRE-Rev species at compound concentration C, Imax the best-fit value for maximum intensity, and Imin the minimum intensity obtained at the highest concentration of inhibitor. All EMSA experiments were repeated three times for each compound.

[2] = system: LTRc, core region of the HIV-1 LTR promoter; experiment: EMSA of association to LTRc DNA; assay type: binding; conditions: 20 nM LTRc duplex; 10 mM HEPES pH 7.5, 300 mM KCl, 1 mM MgCl2, 0.5 mM EDTA
Description: as §1

HTLV-1 LTR promoter = experiment: Transfection of pLTR(HTLV)-luc in MT-2 cells; conditions: Primate T-lymphotropic virus 1, MT2, 48 h, read-out: EC50 transfection HTLV LTR
Description: To further assess the mechanism of antiviral action of the compounds, we checked whether they also interfered with the regulatory sequences of HTLV-1, a closely related retrovirus.
MT-2 cells were transfected with plasmids containing a luciferase reporter gene whose expression was under the control of the full length proviral HIV-1 (NL4.3-luc), the HIV-1 LTR promoter (pLTR-luc), or the HTLV-1 LTR promoter (pLTR(HTLV)-luc). After transfection, cells were treated with different compound concentrations, and activity quantification was performed 48 h later by determining luciferase activity in cell lysates as described[7],[21],[22].

[3] = system: full length proviral HIV-1 (NL4.3-luc); experiment: Transfection of full-length proviral HIV-1 (NL4.3-luc) in MT-2 cells; assay type: cell-based; conditions: Human immunodeficiency virus 1, MT2, 48 h, read-out: EC50 transfection HIV-1
HIV-1 = experiment: Cellular HIV-1 infection assay (NL4.3-Ren, MT-2 cells); assay type: cell-based; conditions: Human immunodeficiency virus 1, MT2, 48 h post-infection
Description: (§2) The methodology used to perform and analyse these experiments has been reported elsewhere[7],[21],[22]. Briefly, infectious supernatants were obtained from transfection of plasmid pNL4.3-Ren on 293 T cells, MT-2 cells were infected with these supernatants in the presence of the compounds, and anti-HIV activity quantification was performed 48 h post-infection by determining luciferase activity in cell lysates compared to a non-treated control (100%). Cellular viability was evaluated in mock infected cells similarly treated with the same concentrations of compounds using the CellTiterGlo (Promega) assay.

[4] = Cellular viability (CellTiterGlo) in mock infected cells; assay type: cell-based; conditions: human, mock infected MT-2 cells
Description: as §2

[5] = target: RRE subdomain IIB RNA hairpin IIBh; experiment: Fluorescence intensity binding to fluorescein-labelled IIBh hairpin; design: species or system HIV-1; conditions: for IIB-DNA spec., Kd(IIBh)/Kd(IIBh+LTRd) / IIB-tRNA spec., Kd(IIBh)/Kd(IIBh+tRNA): low ionic strength, 10 mM sodium phosphate pH 6.6, uses Kd1
Source text: We next determined whether the terphenyl molecules blocked the interaction between Rev34–50 and subdomain IIB by binding to the RNA and, if so, whether they recognized subdomain IIB in a manner similar to the Rev34–50 α-helix. We first evaluated subdomain IIB association by measuring changes in the fluorescence intensity of a IIBh RNA hairpin construct containing a fluorescein probe attached to unpaired loop IIB residue U23 (Fig. 1D)[21],[22]. […] However, there were significant differences among the compounds.
These experiments measured association to IIBh-23fl or TARh-8fl RNA molecules labelled with fluorescein at extrahelical loop nucleotides U23 and U8, respectively (Fig. 1D), and were carried out under two different ionic conditions in a Victor X5 plate reader, using excitation and emission wavelengths of 485 and 520 nm, respectively. We also attempted to measure association to an alternative IIBh hairpin containing 2-aminopurine instead of adenine at unpaired loop IIB residue A19[21], but all terphenyls fluoresced at the excitation wavelength of this fluorophore. IIBh-23fl or TARh-8fl (at 100 nM concentration) was equilibrated for 5 minutes after each ligand addition in a buffer containing either 10 mM sodium phosphate pH 6.6 and 0.1 mM EDTA or 10 mM HEPES pH 7.5, 200 mM KCl and 2 mM MgCl2. In addition to the TARh specificity control, the RNA and DNA specificity of the IIBh interactions was assessed by duplicating the experiments in the presence of a 10-fold molar excess (1 μM) of either tRNA^Lys or DNA duplex LTRd. The equilibrium dissociation constants Kd were determined by fitting the fluorescence intensity curves with DYNAFIT[40]. We used one-site, two independent-sites and two interacting-sites binding models for all curves, and the best model was automatically selected by model discrimination analysis, except where indicated. The final graphs were plotted with Prism. All fluorescence intensity experiments were performed at least two times for each compound and condition.

[6] = 10 mM sodium phosphate pH 6.6, 0.1 mM EDTA, two-site model, read-out: Kd (IIBh), first-site Kd1
[7] = 10 mM sodium phosphate pH 6.6, 0.1 mM EDTA, two-site model, read-out: Kd (IIBh), second-site Kd2 (in brackets)
[8] = 10-fold molar excess DNA duplex LTRd, 10 mM sodium phosphate pH 6.6, 0.1 mM EDTA, one-site fit, approximate, read-out: Kd (IIBh+LTRd)
[9] = 10-fold molar excess LTRd, 10 mM HEPES pH 7.5, 200 mM KCl, 2 mM MgCl2, read-out: Kd (IIBh+LTRd), one-site or first-site Kd1, Table S2
[10] = 10-fold molar excess tRNALys, 10 mM sodium phosphate pH 6.6, 0.1 mM EDTA, one-site fit, approximate, read-out: Kd (IIBh+tRNA)
[11] = higher ionic strength, 10 mM HEPES pH 7.5, 200 mM KCl, 2 mM MgCl2
[12] = higher ionic strength, 10 mM HEPES pH 7.5, 200 mM KCl, 2 mM MgCl2, read-out: Kd (IIBh), first-site Kd1, Table S2
[13] = higher ionic strength, 10 mM HEPES pH 7.5, 200 mM KCl, 2 mM MgCl2, read-out: Kd (IIBh), second-site Kd2 (in brackets), Table S2
[14] = 10-fold molar excess tRNALys, 10 mM HEPES pH 7.5, 200 mM KCl, 2 mM MgCl2, one-site fit, approximate, read-out: Kd (IIBh+tRNA), Table S2

Compound	IC50 [1] [µM]	IC50 (high-order RRE-Rev) [µM]	association to LTRc (EMSA) [2]	EC50 (HTLV-1 LTR promoter) [µM]	EC50 [3] [µM]	EC50 (HIV-1) [µM]	CC50 at 48 h [4] [µM]	Kd [5, 6] [µM]	Kd [5, 7] [µM]	Kd [5, 8] [µM]	Kd [5, 9] [µM]	Kd [5, 10] [µM]	IIB-DNA spec., Kd(IIBh)/Kd(IIBh+LTRd), Table S2 [5, 11]	Kd [5, 12] [µM]	Kd [5, 13] [µM]	IIB-DNA spec., Kd(IIBh)/Kd(IIBh+LTRd) [5]	IIB-tRNA spec., Kd(IIBh)/Kd(IIBh+tRNA) [5]	Kd [5, 14] [µM]	Kd ([5]; 10-fold molar excess LTRd, 10 mM HEPES pH 7.5, 200 mM KCl, 2 mM MgCl2, read-out: Kd (IIBh+LTRd), second-site Kd2 (in brackets), Table S2) [µM]	IIB-tRNA spec., Kd(IIBh)/Kd(IIBh+tRNA), Table S2 [5, 11]
COc1cc(CCN)c(-c2cc(C)c(-c3cc(CCN)c(OC)cc3CCN)cc2C)cc1CCN [Compound 1a]	14	6.8	associated to LTRc at low μM concentrations	16.7	12.2	10.6	> 100	0.98	5.9	2.4	15	28	0.29	4.4	18	0.41	0.035	–	–	–
Cc1cc(-c2cc(CCN)ccc2CCN)c(C)cc1-c1cccc(CCN)c1 [Compound 3c]	> 100	> 50	associated only very weakly	16.4	15.4	14.1	> 100	6.5	26	8.1	> 50	5.2	–	> 50	–	0.80	1.3	> 50	–	–
Cc1cc(-c2cc(CCN)ccc2CCN)c(C)cc1-c1cc(CCN)ccc1CCN [Compound 1d]	47	3	associated to LTRc at low μM concentrations	24.9	6	57.9	> 100	0.87	3.5	2.2	3.7	7.8	2.1	7.6	30	0.40	0.11	42	54	0.18
